In brackets after ≈: the same amount, converted by molar mass.
Assays:
[1] = oral toxicity in mice; conditions: mouse, in vivo, oral administration, read-out: oral dosage tolerated without exhibiting toxic symptoms
Procedure: The new cephalosporin derivative of this invention may be administered orally at a unit dose of 100 mg to 250 mg to an adult human patient four times a day, for a guideline. However, precise dosage of the new cephalosporin is determinable through preliminary routine experiments, depending on the body weight, ages, sex and other various parameters of patients as well as the nature of the bacterial infections to be treated, and so on.

[2] = system: Citrobacter freundii GN346/16; experiment: antibacterial activity, MIC by standard serial dilution method; assay type: cell-based
Description: (§1) Antibacterial activity of Compounds Nos. 1, 3, 5, 7, 9, 11, 13, 15, 17, 19, 21, 23, 25, 27, 29, 31, 33, 35 and 37 indentified hereinbefore which are the particular examples of the new cephalosporin derivative of general formula (I) according to this invention and which are in the form of the free carboxylic acid was estimated by determining the minimum inhibitory concentrations (MIC., μg/ml) of these compounds against a variety of bacteria according to a standard serial dilution method.

[3] = system: Citrobacter freundii GN346; experiment: as above; assay type: cell-based
Description: as §1

[4] = system: Enterobacter cloacae G-0008; experiment: as above; assay type: cell-based; conditions: G0008
Description: as §1

[5] = system: Enterobacter cloacae GN7471; experiment: as above; assay type: cell-based
Description: as §1

[6] = system: Enterobacter hirae ATCC8043; experiment: as above; assay type: cell-based
Description: as §1

[7] = system: Entrobacter faecalis W-73; experiment: as above; assay type: cell-based
Description: as §1

[8] = system: Escherichia coli 255/S-1; experiment: as above; assay type: cell-based; conditions: 255/S1
Description: as §1

[9] = system: Escherichia coli 255; experiment: as above; assay type: cell-based
Description: as §1

[10] = system: Escherichia coli GN206; experiment: as above; assay type: cell-based
Description: as §1

[11] = system: Escherichia coli NIHJ JC-2; experiment: as above; assay type: cell-based; conditions: NIHJJC2
Description: as §1

[12] = system: Escherichia coli W3630 RGN823; experiment: as above; assay type: cell-based; conditions: W3630RGN823
Description: as §1

[13] = system: Klebsiella pneumoniae GN69; experiment: as above; assay type: cell-based
Description: as §1

[14] = system: Klebsiella pneumoniae PCI602; experiment: as above; assay type: cell-based
Description: as §1

[15] = system: Marganella morganii 1510/S-1; experiment: as above; assay type: cell-based
Description: as §1

[16] = system: Marganella morganii 1510; experiment: as above; assay type: cell-based
Description: as §1

[17] = system: Proteus vulgaris GN76/C-1; experiment: as above; assay type: cell-based
Description: as §1

[18] = system: Proteus vulgaris GN76; experiment: as above; assay type: cell-based
Description: as §1

[19] = system: Pseudomonas aeruginosa GN10362; experiment: as above; assay type: cell-based
Description: as §1

[20] = system: Serratia marcescens GN10857; experiment: as above; assay type: cell-based
Description: as §1

[21] = system: Serratia marcescens No. 1; experiment: as above; assay type: cell-based
Description: as §1

[22] = system: Staphylococcus aureus 209P JC-1; experiment: as above; assay type: cell-based
Description: as §1

[23] = system: Staphylococcus epidermidis ATCC14990; experiment: as above; assay type: cell-based
Description: as §1

For `CO/N=C(\C(=O)NC1C(=O)N2C(C(=O)OCOC(=O)C(C)(C)C)=C(SC3CCOC3)CS[C@H]12)c1csc(N)n1` (some centres unmarked) [Compound No. 4, pivaloyloxymethyl 7-[(Z)-2-(2-aminothiazol-4-yl)-2-methoxyiminoacetamido]-3-(tetrahydrofuran-3-Yl) thio-3-cephem-4-carboxylate], which NOAEL [1] is on record?
Its NOAEL is 3000 mg/kg.

What does the source list for `Nc1nc(/C(=N/O)C(=O)NC2C(=O)N3C(C(=O)O)=C(SC4COCOC4)CS[C@H]23)cs1` (some centres unmarked) [Compound No. 21, 7 - [(Z) -2-(2-aminothiazol-4-yl) -2-hydroxyiminoacetamido]-3-(1,3-dioxan-5-yl)thio-3-cephem-4-carboxylic acid]?
MIC [2]: 3.13 µg/mL (≈ 6.42 µM); MIC [3]: > 100 µg/mL; MIC [4]: 0.78 µg/mL (≈ 1.6 µM); MIC [5]: 50 µg/mL (≈ 103 µM); MIC [6]: 3.13 µg/mL (≈ 6.42 µM); MIC [7]: 12.5 µg/mL (≈ 25.6 µM); MIC [8]: 0.2 µg/mL (≈ 0.41 µM); MIC [9]: 25 µg/mL (≈ 51.3 µM); MIC [10]: 6.25 µg/mL (≈ 12.8 µM); MIC [11]: 0.2 µg/mL (≈ 0.41 µM); MIC [12]: 3.13 µg/mL (≈ 6.42 µM); MIC [13]: 0.2 µg/mL (≈ 0.41 µM); MIC [14]: 0.2 µg/mL (≈ 0.41 µM); MIC [15]: 0.1 µg/mL (≈ 0.205 µM); MIC [16]: 12.5 µg/mL (≈ 25.6 µM); MIC [17]: 12.5 µg/mL (≈ 25.6 µM); MIC [18]: 0.78 µg/mL (≈ 1.6 µM); MIC [19]: > 100 µg/mL; MIC [20]: > 100 µg/mL; MIC [21]: 3.13 µg/mL (≈ 6.42 µM); MIC [22]: 0.2 µg/mL (≈ 0.41 µM); MIC [23]: 0.2 µg/mL (≈ 0.41 µM)

For `CO/N=C(\C(=O)NC1C(=O)N2C(C(=O)O)=C(SCC3CCCCO3)CS[C@H]12)c1csc(N)n1` (some centres unmarked) [Compound No. 23, 7-[(Z)-2-(2-aminothiazol-4-yl)-2-methoxyiminoacetamido]-3-(tetrahydropyran-2-yl)methylthio-3-cephem-4-carboxylic acid], which MIC [2] is on record?
Its MIC is 6.25 µg/mL (≈ 12.2 µM).

And the MIC [3]?
Its MIC is over 100 µg/mL.

What about the MIC [4] of the same compound?
The MIC was 3.13 µg/mL (≈ 6.09 µM).

And the MIC [5]?
Its MIC is 100 µg/mL (≈ 195 µM).

What about the MIC [6] of the same compound?
The MIC was 25 µg/mL (≈ 48.7 µM).

What about the MIC [7] of the same compound?
Its MIC is over 100 µg/mL.

And the MIC [8]?
The MIC was 3.13 µg/mL (≈ 6.09 µM).

And the MIC [9]?
The MIC was 50 µg/mL (≈ 97.3 µM).

And the MIC [10]?
The MIC was 6.25 µg/mL (≈ 12.2 µM).

And the MIC [11]?
Its MIC is 3.13 µg/mL (≈ 6.09 µM).

And the MIC [12]?
Its MIC is 3.13 µg/mL (≈ 6.09 µM).

And the MIC [13]?
Its MIC is 1.56 µg/mL (≈ 3.04 µM).

What about the MIC [14] of the same compound?
The MIC was 3.13 µg/mL (≈ 6.09 µM).

And the MIC [15]?
Its MIC is 0.78 µg/mL (≈ 1.52 µM).

And the MIC [16]?
Its MIC is 50 µg/mL (≈ 97.3 µM).

What about the MIC [17] of the same compound?
The MIC was 1.56 µg/mL (≈ 3.04 µM).

And the MIC [18]?
Its MIC is 0.39 µg/mL (≈ 0.759 µM).

What about the MIC [19] of the same compound?
Its MIC is 100 µg/mL (≈ 195 µM).

What about the MIC [20] of the same compound?
The MIC was 50 µg/mL (≈ 97.3 µM).

What about the MIC [21] of the same compound?
Its MIC is 1.56 µg/mL (≈ 3.04 µM).

And the MIC [22]?
The MIC was 3.13 µg/mL (≈ 6.09 µM).

And the MIC [23]?
The MIC was 3.13 µg/mL (≈ 6.09 µM).

For `Nc1nc(/C(=N/O)C(=O)NC2C(=O)N3C(C(=O)O)=C(SCC4CCCCO4)CS[C@H]23)cs1` (some centres unmarked) [Compound No. 25, 7-[(Z)-2-(2-aminothiazol-4-yl)-2-hydroxyiminoacetamido]-3-(tetrahydropyran-2-yl)methylthio-3-cephem-4-carboxylic acid], which MIC [2] is on record?
Its MIC is 12.5 µg/mL (≈ 25 µM).

What about the MIC [3] of the same compound?
Its MIC is over 100 µg/mL.

What about the MIC [4] of the same compound?
The MIC was 25 µg/mL (≈ 50 µM).

And the MIC [5]?
The MIC was 100 µg/mL (≈ 200 µM).

What about the MIC [6] of the same compound?
The MIC was 12.5 µg/mL (≈ 25 µM).

And the MIC [7]?
The MIC was 12.5 µg/mL (≈ 25 µM).

What about the MIC [8] of the same compound?
The MIC was 12.5 µg/mL (≈ 25 µM).

And the MIC [9]?
The MIC was 100 µg/mL (≈ 200 µM).

And the MIC [10]?
The MIC was 12.5 µg/mL (≈ 25 µM).

And the MIC [11]?
Its MIC is 12.5 µg/mL (≈ 25 µM).

What about the MIC [12] of the same compound?
Its MIC is 12.5 µg/mL (≈ 25 µM).

And the MIC [13]?
Its MIC is 12.5 µg/mL (≈ 25 µM).

And the MIC [14]?
The MIC was 12.5 µg/mL (≈ 25 µM).

What about the MIC [15] of the same compound?
The MIC was 0.78 µg/mL (≈ 1.56 µM).

What about the MIC [16] of the same compound?
Its MIC is 100 µg/mL (≈ 200 µM).

And the MIC [17]?
Its MIC is 12.5 µg/mL (≈ 25 µM).

What about the MIC [18] of the same compound?
Its MIC is 3.13 µg/mL (≈ 6.27 µM).

What about the MIC [19] of the same compound?
The MIC was over 100 µg/mL.

And the MIC [20]?
Its MIC is over 100 µg/mL.

What about the MIC [21] of the same compound?
The MIC was 6.25 µg/mL (≈ 12.5 µM).

What about the MIC [22] of the same compound?
Its MIC is 1.56 µg/mL (≈ 3.12 µM).

What about the MIC [23] of the same compound?
Its MIC is 1.56 µg/mL (≈ 3.12 µM).

Which MIC [2] does the source give for `CO/N=C(\C(=O)NC1C(=O)N2C(C(=O)O)=C(SCC3CCOC3)CS[C@H]12)c1csc(N)n1` (some centres unmarked) [Compound No. 27, 7-[(Z)-2-(2-aminothiazol-4-yl)-2-methoxyiminoacetamido]-3-(tetrahydrofuran-3-yl)methylthio-3-cephem-4-carboxylic acid] here?
Its MIC is 3.13 µg/mL (≈ 6.27 µM).

What about the MIC [3] of the same compound?
Its MIC is over 100 µg/mL.

What about the MIC [4] of the same compound?
The MIC was 0.78 µg/mL (≈ 1.56 µM).

And the MIC [5]?
The MIC was 50 µg/mL (≈ 100 µM).

What about the MIC [6] of the same compound?
The MIC was over 100 µg/mL.

What about the MIC [7] of the same compound?
Its MIC is 100 µg/mL (≈ 200 µM).

And the MIC [8]?
The MIC was 0.78 µg/mL (≈ 1.56 µM).

What about the MIC [9] of the same compound?
Its MIC is 50 µg/mL (≈ 100 µM).

And the MIC [10]?
Its MIC is 6.25 µg/mL (≈ 12.5 µM).

What about the MIC [11] of the same compound?
The MIC was 0.78 µg/mL (≈ 1.56 µM).

And the MIC [12]?
Its MIC is 0.78 µg/mL (≈ 1.56 µM).

What about the MIC [13] of the same compound?
The MIC was 0.2 µg/mL (≈ 0.4 µM).

And the MIC [14]?
The MIC was 0.39 µg/mL (≈ 0.781 µM).

What about the MIC [15] of the same compound?
Its MIC is 0.39 µg/mL (≈ 0.781 µM).

What about the MIC [16] of the same compound?
Its MIC is 25 µg/mL (≈ 50 µM).

And the MIC [17]?
Its MIC is 6.25 µg/mL (≈ 12.5 µM).

And the MIC [18]?
Its MIC is 0.2 µg/mL (≈ 0.4 µM).

And the MIC [19]?
The MIC was over 100 µg/mL.

And the MIC [20]?
Its MIC is 50 µg/mL (≈ 100 µM).

What about the MIC [21] of the same compound?
Its MIC is 3.13 µg/mL (≈ 6.27 µM).

And the MIC [22]?
Its MIC is 1.56 µg/mL (≈ 3.12 µM).

What about the MIC [23] of the same compound?
Its MIC is 0.78 µg/mL (≈ 1.56 µM).

Source: patent US5332731A, “Cephalosporin derivatives” (Meiji Seika Kaisha, Ltd., priority 1989, dated 1994)
